Results taken from US6960608B2, “Fused indazoles and indoles and their use for the treatment of glaucoma” (Alcon, Inc., priority 2001, dated 2005).

Experiments:
[1] = biological target: T1, 5-HT2 receptor (Rattus norvegicus, UniProt P14842); assay: 5-HT2 functional assay: phosphoinositide (PI) turnover assay; assay type: cell-based; conditions: for Emax: A7R5, read-out: Efficacy (Emax, %)
T1 construct: A7r5 rat vascular smooth muscle cells; endogenous in cells; host or cells: A7r5 rat vascular smooth muscle cells
T1 sequence (P14842 whole entry): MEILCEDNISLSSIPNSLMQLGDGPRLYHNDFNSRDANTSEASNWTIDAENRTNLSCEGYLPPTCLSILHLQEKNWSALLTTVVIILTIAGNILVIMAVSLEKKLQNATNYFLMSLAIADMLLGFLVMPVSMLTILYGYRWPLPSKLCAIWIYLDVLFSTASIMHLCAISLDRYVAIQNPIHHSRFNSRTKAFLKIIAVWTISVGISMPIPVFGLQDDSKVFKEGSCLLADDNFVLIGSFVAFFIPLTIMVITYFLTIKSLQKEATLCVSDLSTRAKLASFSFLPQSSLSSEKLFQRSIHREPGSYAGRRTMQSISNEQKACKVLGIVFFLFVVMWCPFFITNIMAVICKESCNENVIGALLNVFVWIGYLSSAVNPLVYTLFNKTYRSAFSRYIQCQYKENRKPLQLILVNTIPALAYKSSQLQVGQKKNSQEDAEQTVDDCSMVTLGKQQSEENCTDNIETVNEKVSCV
Method: The relative agonist activity of serotonergic compounds at the 5-HT2 receptor can be determined in vitro using the ability of the compounds to stimulate the production of [^3H]inositol phosphates in [^3H]myo-inositol-labeled A7r5 rat vascular smooth muscle cells by their ability to activate the enzyme phospholipase C. These cells are grown in culture plates, maintained in a humidified atmosphere of 5% CO2 and 95% air and fed semi-weekly with Dulbecco's modified Eagle medium (DMEM) containing 4.5 g/L glucose and supplemented with 2 mM glutamine, 10 μg/ml gentamicin, and 10% fetal bovine serum. For the purpose of conducting the phosphoinositide (PI) turnover experiments, the A7r5 cells are cultured in 24-well plates as previously [J. Pharmacol. Expt. Ther. 286, 411 (1998)]. Confluent cells are exposed for 24-30 hrs to 1.5 μCi [^3H]-myo-inositol (18.3 Ci/mmol) in 0.5 mL of serum-free medium. Cells are then rinsed once with DMEM/F-12 containing 10 mM LiCl prior to incubation with the test agent (or solvent as the control) in 1.0 mL of the same medium for 1 hr at 37° C., after which the medium is aspirated and 1 mL of cold 0.1 M formic acid added to stop the reaction. The chromatographic separation of [^3H]-inositol phosphates ([^3H]-IPs) on an AG-1-X8 column is performed as previously described [J. Pharmacol. Expt. Ther. 286, 411 (1998)] with sequential washes with H2O and 50 mM ammonium formate, followed by elution of the total [^3H]-IPs fraction with 1.2 M ammonium formate containing 0.1 M formic acid. The eluate (4 mL) is collected, mixed with 15 ml scintillation fluid, and the total [^3H]-IPs determined by scintillation counting on a beta-counter. Concentration-response data are analyzed by the sigmoidal fit function of the Origin Scientific Graphics software (Microcal Software, Northampton, MA) to determine agonist potency (EC50 value) and efficacy (Emax).

[2] = system: lasered (hypertensive) eyes of conscious cynomolgus monkeys; assay: Acute IOP response in lasered (hypertensive) eyes of conscious cynomolgus monkeys; assay type: in vivo, cynomolgus monkey; conditions: 300 μg topical, lasered eye
Method: Intraocular pressure (IOP) was determined with an Alcon Pneumatonometer after light corneal anesthesia with 0.1% proparacaine. Eyes were washed with saline after each measurement. After a baseline IOP measurement, test compound was instilled in one 30 μL aliquot to the right eyes only of nine cynomolgus monkeys. Vehicle was instilled in the right eyes of six additional animals. Subsequent IOP measurements were taken at 1, 3, and 6 hours. A compound is considered efficacious in this model of ocular hypertension if there is a decrease in the baseline IOP of the lasered eye (O.D.) of at least 20% following topical administration.

## CC(N)Cn1nc2c3c(cc(O)cc31)CCC2.Cl.Cl (stereo not drawn) [Example 1, 2-(2-Aminopropyl)-2,6,7,8-tetrahydro-benzo[cd]indazol-4-ol dihydrochloride]
other
  melting point: 286 to 288 °C
[1]
  EC50: 374 nM
  Emax: 85%
[2]; 1 hour after dose
  Percent Change in IOP ± SEM: −5.9 ± 2.69%
[2]; 3 hours after dose
  Percent Change in IOP ± SEM: −20.0 ± 3.54%
[2]; 6 hours after dose
  Percent Change in IOP ± SEM: −21.6 ± 4.91%

## CC(N)Cn1nc2c3c(ccc(O)c31)CCC2.Cl.Cl (stereo not drawn) [Example 2, 2-(2-Aminopropyl)-2,6,7,8-tetrahydro-benzo[cd]indazol-3-ol dihydrochloride]
other
  melting point: 284 to 286 °C
[1]
  EC50: 1440 nM
  Emax: 55%
